Reference: patent US6416783B1, “Aspartic and malic acid inhibition of ss-glucuronidase” (Wisconsin Alumni Research Foundation, priority 1999, dated 2002)
Several values for one entry are separate records, joined by “and”; a condition that tells them apart may be missing. Identical values can stand only once. Entries after “also recorded” stand apart in the source; their conditions may differ. Like-named read-outs stand apart in the source and are kept apart here. One block for each molecule: values may come before it.

Biological target: T1, β-glucuronidase (Homo sapiens, UniProt P08236)
T1 construct: We used human breast milk collected and pooled from a newborn nursery as the β-glucuronidase source; from tissue
T1 sequence (P08236 23-651): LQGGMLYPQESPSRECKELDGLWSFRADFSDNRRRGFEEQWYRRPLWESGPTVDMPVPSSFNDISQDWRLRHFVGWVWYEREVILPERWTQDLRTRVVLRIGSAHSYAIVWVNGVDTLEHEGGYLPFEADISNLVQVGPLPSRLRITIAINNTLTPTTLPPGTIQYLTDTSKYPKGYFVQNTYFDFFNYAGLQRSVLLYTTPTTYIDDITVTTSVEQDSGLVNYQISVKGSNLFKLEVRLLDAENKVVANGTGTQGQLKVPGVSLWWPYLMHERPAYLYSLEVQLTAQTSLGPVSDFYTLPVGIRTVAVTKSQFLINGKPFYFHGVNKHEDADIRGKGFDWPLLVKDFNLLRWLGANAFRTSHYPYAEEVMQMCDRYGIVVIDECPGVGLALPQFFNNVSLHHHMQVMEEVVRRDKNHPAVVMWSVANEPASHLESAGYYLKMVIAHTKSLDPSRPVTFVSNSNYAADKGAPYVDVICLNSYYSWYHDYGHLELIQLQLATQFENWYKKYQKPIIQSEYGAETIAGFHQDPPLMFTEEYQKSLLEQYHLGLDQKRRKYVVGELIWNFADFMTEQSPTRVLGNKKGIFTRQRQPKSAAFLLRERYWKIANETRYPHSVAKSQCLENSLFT
Experiment: Standard Test: β-glucuronidase activity of human breast milk with MUG substrate (fluorescence)
Assay type: biochemical
Settings: for mean (X̄) activity / X (mean activity): mean of 3; for Activity (pmole/tube/hr) / β-glucuronidase activity (row unlabelled): single replicates; for concentration with significant β-glucuronidase inhibitory activity: tested 10 to 10,000 μM; for β-glucuronidase activity, % (of control): 0.1, 1, 10 mM; for X (mean activity) / β-glucuronidase activity (row unlabelled): in pmol/tube/h
Description: We first developed a standard assay procedure (the “Standard Test”). We used human breast milk collected and pooled from a newborn nursery as the β-glucuronidase source. The samples were stored at −20° C. The milk was thawed and diluted 10× with 0.2 M sodium acetate/glacial acetic acid (NaAC) buffer pH 4.5 just prior to being used. A 4.0 mM stock solution of 4-methylumbelliferyl β-D-glucuronide (MUG, Sigma M-9130 lot#75H3777) was prepared in 0.2 M NaAC buffer pH 4.5.
Triplicate test and blank tubes contained a reaction mixture consisting of 50 μL diluted breast milk and 50 μL of an inhibitor solution diluted with 0.2 M NaAC buffer pH 4.5. Controls were prepared that contained only 50 μL diluted breast milk and 50 μL 0.2 M NaAC buffer pH 4.5. The assay was started by adding 25 μl of the MUG (4.0 mM, 0.800 mM final concentration) to the test sample to start the reaction. The final volume of the reaction was 125 μL. Both blank and test samples were vortexed and incubated at 37° C. for 1 hour (or for shorter times if indicated).
The reaction was quenched in both the test and blank samples with 3.0 ml of glycine-carbonate (320 mM: 200 mM) buffer pH 10.0. The blank samples had 25 μl of the MUG (4.0 mM, 0.800 mM final) added to them and all tubes were vortexed.
The resulting fluorescence was read using a Perkin Elmer LS5-B fluorescence spectrophotometer (360 nm excitation, 445 nm emission, autorange scale). The amount of 4-methylumbelliferone (4-MU) released by the β-glucuronidase was calculated using a 4-MU quadratic standard curve and the Mathplot software. The velocity was calculated as pmoles of 4-MU formed per hour per ml undiluted breast milk.
We diluted pooled breast milk 20× with 0.2 M NaAC buffer pH 4.5. We diluted 2.2% w/v solution of Amicase (Sigma Cat. #A2427—a mixture of free amino acids with virtually no unhydrolyzed peptides, only minimal inorganic components are present, total nitrogen ˜12.8%, amino nitrogen ˜9.8%) with buffer 5×. We then incubated 50 μl milk with 50 μl buffer and Amicase. We then added 25 μl MUG to start the reaction. We then quenched with Na-carbonate buffer pH 10.0 and read fluorescence at 360 nm ex 445 nm em. Autorange scale. The mixture of amino acids was compared to controls and Nutramigen® as follows:
We then studied the effect of specific amino acid mixtures on β-glucuronidase activity. We diluted pooled breast milk 10× with 0.2 M NaAC buffer pH 4.5 and diluted 50×stock essential amino acid solution (Sigma Cat #M7020=L-arginine.HCl 6.32 g/L, L-cystine 1.2 g/L, L-histidine.HCl.H20 2.1 g/L, L-isoleucine 2.625 g/L, L-leucine 2.62 g/L, L-lyscine.HCl 3.625 g/L, L-methionine 0.755 g/L, L-phenylalanine 1.65 g/L, L-threonine 2.38 g/L, L-tryptophane 0.51 g/L, L-tyrosine 1.8 g/L, L-valine 2.34 g/L).
We also used a non-essential AA solution=Sigma Cat #M7145=L-alanine HCl 0.89 g/L, L-asparagine.H20 1.50 g/L, L-aspartic acid 1.33 g/L, L-glutamic acid 1.47 g/L, glycine 0.75 g/L, L-proline 1.15 g/L, L-serine 1.05 g/L.
We 5×diluted 100×stock essential AA solution. We incubated 50 μl diluted milk with 50 μl buffer (control), or the essential AA solution, or the non-essential AA solution, or Nutramigen® RTU, added 25 μl MUG to start the reaction, quenched with Na-carbonate buffer, and read fluorescence (360 nm excitation: 445 nm emission). The results are as follows:
We then analyzed inhibitory effect of each of the seven amino acids in the non-essential amino acid mixture. We diluted pooled breast milk 10× with 0.2 M NaAC buffer pH 4.5, and diluted Nutramigen® RTU (N) and Nutramigen® lipid-free supernatant (LFS) 5 fold with 0.2 M NaAC buffer pH 4.5.
We prepared stock solutions of each of the non-essential amino acids L-alanine (Ala), L-asparagine (Asn), L-aspartic acid (Asp), L-glutamic acid (Glu), glycine (Gly), L-proline (Pro), and L-Serine (Ser). All solutions were at pH 4.5. The final concentration of each amino acid in the assay was the same as when the amino acids were analyzed as a mixture. […]

[1] = Example 5, Conc. 10 μm, read-out: % (activity relative to control)
[2] = Example 5, Conc. 100 μm, read-out: % (activity relative to control)
[3] = Example 5, Conc. 1,000 μm, read-out: % (activity relative to control)
[4] = Example 5, Conc. 10,000 μm, read-out: % (activity relative to control)
[5] = Example 4, 0.1 mM, read-out: % (activity relative to control)
[6] = Example 4, 1 mM, read-out: % (activity relative to control)
[7] = Example 4, 10 mM, read-out: % (activity relative to control)

SMILES: C[C@H](N)C(=O)O [Ala, L-alanine]
remaining activity at 35.6 µg/mL (Example 3, 35.6 μg/ml, read-out: % (activity relative to control)): 99.5% | mean (X̄) activity (Example 3, 35.6 μg/ml): 671.0 pmole/tube/hr | Activity (pmole/tube/hr) (Example 3, 35.6 μg/ml): 686.2 pmole/tube/hr and 670.9 pmole/tube/hr and 656.0 pmole/tube/hr

SMILES: NC(=O)C[C@H](N)C(=O)O [Asn, L-asparagine]
remaining activity at 61.4 µg/mL (Example 3, 61.4 μg/ml, read-out: % (activity relative to control)): 97.8% | mean (X̄) activity (Example 3, 61.4 μg/ml): 659.2 pmole/tube/hr | Activity (pmole/tube/hr) (Example 3, 61.4 μg/ml): 663.2 pmole/tube/hr and 667.6 pmole/tube/hr and 646.7 pmole/tube/hr

SMILES: N[C@@H](CC(=O)O)C(=O)O [Asp, L-aspartic acid]
effect on β-glucuronidase activity (in words): significantly inhibit β-glucuronidase; also recorded: significant β-glucuronidase inhibitory activity | remaining activity at 53.2 µg/mL (Example 3, 53.2 μg/ml, read-out: % (activity relative to control)): 73.7% | mean (X̄) activity (Example 3, 53.2 μg/ml): 496.5 pmole/tube/hr | Activity (pmole/tube/hr) (Example 3, 53.2 μg/ml): 494.8 pmole/tube/hr and 500.8 pmole/tube/hr and 493.9 pmole/tube/hr | potency in β-glucuronidase inhibition relative to D-aspartic acid (Example 5): approximately 100 times | remaining activity at 10 µM [1]: 97.4% | remaining activity at 100 µM [2]: 89.3% | remaining activity at 1000 µM [3]: 53% | remaining activity at 10000 µM [4]: 8.4% | mean (X̄) activity (Example 5, Conc. 10 μm): 693.9 pmole/tube/hr | mean (X̄) activity (Example 5, Conc. 100 μm): 636.4 pmole/tube/hr | mean (X̄) activity (Example 5, Conc. 1,000 μm): 377.5 pmole/tube/hr | mean (X̄) activity (Example 5, Conc. 10,000 μm): 60.2 pmole/tube/hr | Activity (pmole/tube/hr) (Example 5, Conc. 10 μm): 692.5 pmole/tube/hr and 705.8 pmole/tube/hr and 683.2 pmole/tube/hr | Activity (pmole/tube/hr) (Example 5, Conc. 100 μm): 641.0 pmole/tube/hr and 640.1 pmole/tube/hr and 628.0 pmole/tube/hr | Activity (pmole/tube/hr) (Example 5, Conc. 1,000 μm): 405.5 pmole/tube/hr and 378.0 pmole/tube/hr and 349.1 pmole/tube/hr | Activity (pmole/tube/hr) (Example 5, Conc. 10,000 μm): 62.7 pmole/tube/hr and 59.2 pmole/tube/hr and 58.6 pmole/tube/hr | concentration with significant β-glucuronidase inhibitory activity (Example 5): > 10 µM | pH of maximum inhibition of β-glucuronidase (pH experiments): ~5

SMILES: N[C@@H](CCC(=O)O)C(=O)O [Glu, L-glutamic acid]
mean (X̄) activity (Example 3, 58.8 μg/ml): 660.0 pmole/tube/hr | Activity (pmole/tube/hr) (Example 3, 58.8 μg/ml): 658.8 pmole/tube/hr and 657.5 pmole/tube/hr and 663.7 pmole/tube/hr | remaining activity at 58.8 µg/mL (read-out: % (activity relative to control)): 97.9%

SMILES: O=C(O)C[C@H](O)C(=O)O [L-malic acid]
effect on β-glucuronidase activity (in words): significantly inhibit β-glucuronidase; also recorded: contributed to the inhibition of β-glucuronidase at similar concentrations to L-aspartic acid

Continued, in another order:

remaining activity at 10 µM [1]: 98.4% | remaining activity at 100 µM [2]: 97.5% | remaining activity at 1000 µM [3]: 98.1% | remaining activity at 10000 µM [4]: 86.2% | mean (X̄) activity (Example 5, Conc. 10 μm): 701.0 pmole/tube/hr | mean (X̄) activity (Example 5, Conc. 100 μm): 694.8 pmole/tube/hr | mean (X̄) activity (Example 5, Conc. 1,000 μm): 699.2 pmole/tube/hr | mean (X̄) activity (Example 5, Conc. 10,000 μm): 614.7 pmole/tube/hr | concentration with significant β-glucuronidase inhibitory activity (Example 5): 10,000 μM
SMILES: N[C@H](CC(=O)O)C(=O)O [D-asp, D-aspartic acid]
Activity (pmole/tube/hr) (Example 5, Conc. 10 μm): 706.2 pmole/tube/hr and 705.1 pmole/tube/hr and 691.7 pmole/tube/hr | Activity (pmole/tube/hr) (Example 5, Conc. 100 μm): 692.3 pmole/tube/hr and 709.8 pmole/tube/hr and 682.1 pmole/tube/hr | Activity (pmole/tube/hr) (Example 5, Conc. 1,000 μm): 704.2 pmole/tube/hr and 702.3 pmole/tube/hr and 691.2 pmole/tube/hr | Activity (pmole/tube/hr) (Example 5, Conc. 10,000 μm): 626.2 pmole/tube/hr and 614.9 pmole/tube/hr and 602.9 pmole/tube/hr

remaining activity at 100 µM [5]: 99.1% | remaining activity at 1000 µM [6]: 99.2% | remaining activity at 10000 µM [7]: 99.2% | β-glucuronidase activity, % (of control) (Example 4): 99% | X (mean activity) (Example 4, 0.1 mM): 820.2 | X (mean activity) (Example 4, 1 mM): 812.2 | X (mean activity) (Example 4, 10 mM): 820.5 | β-glucuronidase activity (row unlabelled) (Example 4, 0.1 mM): 816.8 and 812.8 and 830.9 | β-glucuronidase activity (row unlabelled) (Example 4, 1 mM): 825.6 and 808.7 and 802.5 | β-glucuronidase activity (row unlabelled) (Example 4, 10 mM): 806.6 and 833.7 and 821.3
SMILES: O=C[C@H](O)[C@@H](O)[C@@H](O)[C@H](O)CO [D-gal, D(+)galactose]

remaining activity at 30 µg/mL (Example 3, 30.0 μg/ml, read-out: % (activity relative to control)): 102% | mean (X̄) activity (Example 3, 30.0 μg/ml): 685.5 pmole/tube/hr
SMILES: NCC(=O)O [Gly, glycine]
Activity (pmole/tube/hr) (Example 3, 30.0 μg/ml): 674.7 pmole/tube/hr and 695.4 pmole/tube/hr and 686.5 pmole/tube/hr

remaining activity at 100 µM [5]: 98.4% | remaining activity at 1000 µM [6]: 99.3% | remaining activity at 10000 µM [7]: 100% | β-glucuronidase activity, % (of control) (Example 4): 98-100% | X (mean activity) (Example 4, 0.1 mM): 814.1 | X (mean activity) (Example 4, 1 mM): 821.6 | X (mean activity) (Example 4, 10 mM): 827.9 | β-glucuronidase activity (row unlabelled) (Example 4, 0.1 mM): 811.8 and 817.0 and 813.4 | β-glucuronidase activity (row unlabelled) (Example 4, 1 mM): 805.6 and 850.0 and 809.3 | β-glucuronidase activity (row unlabelled) (Example 4, 10 mM): 835.1 and 824.1 and 824.3
SMILES: CC(=O)N[C@H]1C(O)O[C@H](CO)[C@H](O)[C@@H]1O (stereo partly drawn) [NAG, N-acetyl-D-galactosamine]

remaining activity at 100 µM [5]: 99.3% | remaining activity at 1000 µM [6]: 99.2% | remaining activity at 10000 µM [7]: 110% | β-glucuronidase activity, % (of control) (Example 4): 99-100% | X (mean activity) (Example 4, 0.1 mM): 821.9 | X (mean activity) (Example 4, 1 mM): 820.5 | X (mean activity) (Example 4, 10 mM): 905.7 | β-glucuronidase activity (row unlabelled) (Example 4, 0.1 mM): 806.4 and 848.2 and 810.9 | β-glucuronidase activity (row unlabelled) (Example 4, 1 mM): 829.9 and 827.6 and 803.9 | β-glucuronidase activity (row unlabelled) (Example 4, 10 mM): 897.8 and 912.1 and 907.2
SMILES: CC(=O)N[C@H]1[C@H]([C@H](O)[C@H](O)CO)OC(O)(C(=O)O)C[C@@H]1O (stereo partly drawn) [NAN, N-acetylneuraminic acid]
